The text below walks through data of patent US20240166693A1, “METHODS AND COMPOUNDS FOR MODULATING MYOTONIC DYSTROPY 1” (Design Therapeutics, Inc., priority 2020, published 2024).

The subject of this experiment is Myotonic Dystrophy 1 affected patient fibroblasts (Coriell GM04602; 1600 CTG repeats). The experiment in a line: DM1 foci reduction assay (CAG10-Cy3 FISH, average foci per nucleus). The class given is cell-based. The settings on record: Homo sapiens, Fibroblast. The procedure: DM1 foci reduction assay methods: Myotonic Dystrophy 1 affected patient fibroblasts (Coriell GM04602; 1600 CTG repeats) and wild type fibroblasts (Coriell GM07492; control line) were cultured separately in Gibco DMEM (1×)+4.5 g/L D-Glucose+L-Glutamine+110 mg/L Sodium Pyruvate, supplemented with 10% FBS and 1× Pen/Strep. Cells were maintained in incubator at 37° C. and 5% CO2 with media refresh every 48-72 hours.
At 90-95% confluency, both cell lines were harvested using Trypl-E then pelleted at 500×g for 5 minutes and were resuspended in media. DM1 fibroblasts were seeded in Agilent 96 well black plates at a density of 5,000 cells/well in 200 μL media; 8 wells were reserved for control fibroblasts. Plates were returned to incubator for 24 hours at 37° C. and 5% CO2.
Compounds were diluted from 10 mM stock to 1 mM in DMSO, then diluted once more to 6 μM (2× concentration) in media. Media was removed from all plates and cells were replenished with 100 μL media. Cells were treated in 8-point dose response, 1:3 fold dilution, 3 μM top dose via addition of 100 μL of 6 μM (2× concentration) compound to the 100 μL media with cells. Plates were returned to incubator for 48-hour time-course experiment at 37° C. and 5% CO2.
Following treatment, compounds were removed, and plates were washed with PBS, then cells were fixed in 75 μL 4% PFA solution for 20 minutes at room temperature. Plates were washed twice with PBS and twice with cold 70% ethanol before permeabilization with 250 μL cold 70% ethanol for 24-72 hours at −20° C.
After permeabilization, plates were washed once with a 30% formamide and 2×SSC buffer and rehydrated in that buffer for 15 minutes at room temperature. Cells were incubated overnight at 37° C. in 75 μL of a hybridization solution containing 30% formamide, 2×SSC, 25 mg/mL dextran sulfate, 2.5 mg/mL BSA, 0.2 μg/mL Herring sperm DNA, 2 mM vanadyl-ribonucleoside complex, and 5 nM CAG10-Cy3 probe.
Plates were washed once with 30% formamide in 2×SSC buffer, then twice with the buffer for 30 minutes at 37° C., 300 RPM in an incubating plate shaker. Cells were stained with 75 μL of 2.5 μg/mL DAPI in PBS for 5 minutes at room temperature. Plates were then washed twice with PBS and stored in 250 μL PBS. Plates were sealed with adhesive foil and wiped down with 70% ethanol.
Cells were imaged on a Cytation5 with a 20× objective sampling from 4 areas of each well. Nuclei were captured under DAPI channel and foci under RFP channel. Plates were analyzed on an average foci per nucleus per well basis.

[1] abbreviates: 48 h, read-out: Foci Reduction in Fibroblast EC50, 48 h (nM).
Setting [2] is: DM1 fibroblasts, 48 h treatment, 8-point dose response, 3 μM top dose, read-out: Foci Reduction in Fibroblast EC50, 48 h.

SMILES strings stand for the structures. Like-named read-outs stand apart in the source and are kept apart here.

On to `CCN(CC)CCCC[C@H](NC(=O)[C@H](CC(C)C)NC(=O)[C@H](C)NC(=O)[C@H](Cc1ccccc1)NC(=O)c1ccc(C(C)(C)C)cc1)C(=O)N[C@@H](CO)C(=O)NCCOCCOCCOCCOCCOCCNC(=O)c1cc(NC(=O)c2nc(NC(=O)CCNC(=O)c3cc(NC(=O)c4nc(NC(=O)[C@H](CCNC(=O)c5cc(NC(=O)c6nc(NC(=O)CCNC(=O)c7cc(NC(=O)c8nccn8C)cn7C)cn6C)cn5C)NC(C)=O)cn4C)cn3C)cn2C)cn1C` [Compound 132], for which, under setting [1], the EC50 (commonly the concentration that produces a half-maximal response) was under 100 nM. As to `CCN(CC)CCCCCC(=O)NCC(=O)NCCOCCOCCOCCOCCOCCNC(=O)CCNC(=O)c1nc(NC(=O)c2cc(NC(=O)CCNC(=O)c3nc(NC(=O)CCCNC(=O)c4cc(NC(=O)c5nc(NC(=O)CCNC(=O)c6cc(NC(=O)c7nccn7C)cn6C)cn5C)cn4C)cn3C)cn2C)cn1C` [Compound 158], the 50% effective concentration (EC50) under setting [2] was over 500 nM.

Take `CCCNC(=O)c1cc(NC(=O)c2nc(NC(=O)CCNC(=O)c3cc(NC(=O)c4nc(NC(=O)[C@@H](CCNC(=O)c5cc(NC(=O)c6nc(NC(=O)CCNC(=O)c7cc(NC(=O)c8nccn8C)cn7C)cn6C)cn5C)NC(=O)COCCOCCOCCOCCOCCNC(=O)[C@H](CO)NC(=O)[C@H](CCCCN(CC)CC)NC(=O)[C@H](CC(C)C)NC(=O)[C@H](C)NC(=O)[C@H](Cc5ccccc5)NC(=O)c5ccc(C(C)(C)C)cc5)cn4C)cn3C)cn2C)cn1C` [Compound 133]: under setting [1], the 50% effective concentration (EC50) was in the range of 100 to 500 nM. For `CC(=O)c1cc(-c2ccccc2S(C)(=O)=O)c2cc(OCCOCCOCCOCCOCCOCCOCCOCCOCCOCCOCCNC(=O)CCNC(=O)c3nc(NC(=O)c4cc(NC(=O)CCNC(=O)c5nc(NC(=O)CCCNC(=O)c6cc(NC(=O)c7nc(NC(=O)CCNC(=O)c8cc(NC(=O)c9nccn9C)cn8C)cn7C)cn6C)cn5C)cn4C)cn3C)ccn12` [Compound 170], the EC50 under setting [2] was over 500 nM. The same measure, in the same setting: to `CC(=O)c1cc(-c2ccccc2S(C)(=O)=O)c2cc(OCCOCCOCCNC(=O)CCNC(=O)c3nc(NC(=O)c4cc(NC(=O)CCNC(=O)c5nc(NC(=O)CCCNC(=O)c6cc(NC(=O)c7nc(NC(=O)CCNC(=O)c8cc(NC(=O)c9nccn9C)cn8C)cn7C)cn6C)cn5C)cn4C)cn3C)ccn12` [Compound 168] belongs over 500 nM; to `CN(C)[C@H]1CN(C2CCc3cccc(F)c32)C[C@@H]1c1ccc(N2CCN(C(=O)COCCOCCOCCOCCOCCNC(=O)CCNC(=O)c3nc(NC(=O)c4cc(NC(=O)CCNC(=O)c5nc(NC(=O)CCCNC(=O)c6cc(NC(=O)c7nc(NC(=O)CCNC(=O)c8cc(NC(=O)c9nccn9C)cn8C)cn7C)cn6C)cn5C)cn4C)cn3C)CC2)cc1` (some centres unmarked) [Compound 146], over 500 nM. On to `CCN(CC)CCCC[C@H](NC(=O)[C@H](CC(C)C)NC(=O)[C@H](C)NC(=O)[C@H](Cc1ccccc1)NC(=O)c1ccc(C(C)(C)C)cc1)C(=O)N[C@@H](CO)C(=O)NCCOCCOCCOCCOCCOCCNC(=O)c1cc(NC(=O)c2nc(NC(=O)c3cc(NC(=O)[C@H](N)CCNC(=O)c4nc(NC(=O)CCNC(=O)c5cc(NC(=O)c6nccn6C)cn5C)cn4C)cn3C)cn2C)cn1C` [Compound 116], for which the concentration for a half-maximal effect (EC50) under setting [1] was over 500 nM. The same measure, in the same setting: in the case of `CCN(CC)CCCC[C@H](NC(=O)COCCOCCOCCNC(=O)c1ccc(C(C)(C)C)cc1)C(=O)N[C@@H](CO)C(=O)NCCOCCOCCOCCOCCOCCNC(=O)CCNC(=O)c1nc(NC(=O)c2cc(NC(=O)CCNC(=O)c3nc(NC(=O)CCCNC(=O)c4cc(NC(=O)c5nc(NC(=O)CCNC(=O)c6cc(NC(=O)c7nccn7C)cn6C)cn5C)cn4C)cn3C)cn2C)cn1C` [Compound 140] it was 100 to 500 nM; in that of `CCN(CC)CCCC[C@H](NC(=O)[C@H](CC(C)C)NC(=O)[C@H](C)NC(=O)[C@H](Cc1ccccc1)NC(=O)c1ccc(C(C)(C)C)cc1)C(=O)N[C@@H](CO)C(=O)NCCOCCOCCOCCOCCOCCOCCOCCOCCOCCOCCNC(=O)CCNC(=O)c1nc(NC(=O)c2cc(NC(=O)CCNC(=O)c3nc(NC(=O)CCCNC(=O)c4cc(NC(=O)c5nc(NC(=O)CCNC(=O)c6cc(NC(=O)c7nccn7C)cn6C)cn5C)cn4C)cn3C)cn2C)cn1C` [Compound 26], 100 to 500 nM; in that of `CCN(CC)CCCC[C@H](NC(=O)[C@H](CC(C)C)NC(=O)[C@H](C)NC(=O)[C@H](Cc1ccccc1)NC(=O)c1ccc(C(C)(C)C)cc1)C(=O)N[C@@H](CO)C(=O)N1CCC(C#CC#CC2CCN(CCOCCNC(=O)CCNC(=O)c3nc(NC(=O)c4cc(NC(=O)CCNC(=O)c5nc(NC(=O)CCCNC(=O)c6cc(NC(=O)c7nc(NC(=O)CCNC(=O)c8cc(NC(=O)c9nccn9C)cn8C)cn7C)cn6C)cn5C)cn4C)cn3C)CC2)CC1` [Compound 181], under 100 nM. Regarding `CCN(CC)CCCC[C@H](NC(=O)[C@H](CC(C)C)NC(=O)[C@H](C)NC(=O)[C@H](Cc1ccccc1)NC(=O)c1ccc(C(C)(C)C)cc1)C(=O)N[C@@H](CO)C(=O)NCCOCCOCCOCCOCCOCCNC(=O)c1nc(NC(=O)c2cc(NC(=O)CCNC(=O)c3nc(NC(=O)CCCNC(=O)c4nc(NC(=O)c5nc(CC(=O)CCNC(=O)c6cc(NC(=O)c7nccn7C)cn6C)cn5C)cn4C)cn3C)cn2C)cn1C` [Compound 103], the 50% effective concentration (EC50) under setting [1] is under 100 nM.

As for `CCCCN(Cc1ccc(C(=O)NO)cc1)C(=O)Nc1ccc(OCc2cn(CCOCCOCCNC(=O)CCNC(=O)c3nc(NC(=O)c4cc(NC(=O)CCNC(=O)c5nc(NC(=O)CCCNC(=O)c6cc(NC(=O)c7nc(NC(=O)CCNC(=O)c8cc(NC(=O)c9nccn9C)cn8C)cn7C)cn6C)cn5C)cn4C)cn3C)nn2)cc1` [Compound 127], the EC50 under setting [2] is over 500 nM. Same read-out and setting: in the case of `CCN(CCN(C)CCOCCOCCOCCOCCOCCNC(=O)CCNC(=O)c1nc(NC(=O)c2cc(NC(=O)CCNC(=O)c3nc(NC(=O)CCCNC(=O)c4cc(NC(=O)c5nc(NC(=O)CCNC(=O)c6cc(NC(=O)c7nccn7C)cn6C)cn5C)cn4C)cn3C)cn2C)cn1C)C(=O)CNCc1cc(C(N)=O)ccn1` [Compound 163] it was over 500 nM; in that of `Cn1cc(NC(=O)c2nc(NC(=O)CCNC(=O)c3cc(NC(=O)c4nccn4C)cn3C)cn2C)cc1C(=O)NCCCC(=O)Nc1cn(C)c(C(=O)NCCC(=O)Nc2cc(C(=O)Nc3cn(C)c(C(=O)NCCC(=O)NCCOCCOCCOCCOCCOCCNC(=O)c4ccc(-c5cnc(NCc6ccco6)n6cnnc56)cc4)n3)n(C)c2)n1` [Compound 60], 100 to 500 nM.

Turning to `CCN(CC)CCCC[C@H](NC(=O)[C@H](CC(C)C)NC(=O)[C@H](C)NC(=O)[C@H](Cc1ccccc1)NC(=O)c1ccc(C(C)(C)C)cc1)C(=O)N[C@@H](CO)C(=O)NCCOCCOCCOCCOCCN1CCN(C2CCN(C(=O)CCNC(=O)c3nc(NC(=O)c4cc(NC(=O)CCNC(=O)c5nc(NC(=O)CCCNC(=O)c6cc(NC(=O)c7nc(NC(=O)CCNC(=O)c8cc(NC(=O)c9nccn9C)cn8C)cn7C)cn6C)cn5C)cn4C)cn3C)CC2)CC1` [Compound 186], under setting [1], the EC50 is over 500 nM. On the same count and under the same terms, to `CCN(CC)CCCC[C@H](NC(=O)COCCOCCNC(=O)c1ccc(C(C)(C)C)cc1)C(=O)N[C@@H](CO)C(=O)NCCOCCOCCNC(=O)CCNC(=O)c1nc(NC(=O)c2cc(NC(=O)CCNC(=O)c3nc(NC(=O)CCCNC(=O)c4cc(NC(=O)c5nc(NC(=O)CCNC(=O)c6cc(NC(=O)c7nccn7C)cn6C)cn5C)cn4C)cn3C)cn2C)cn1C` [Compound 81] belongs under 100 nM; to `CCN(CC)CCCC[C@H](NC(=O)[C@H](CC(C)C)NC(=O)[C@H](C)NC(=O)[C@H](Cc1ccccc1)NC(=O)c1ccc(C(C)(C)C)cc1)C(=O)N[C@@H](CO)C(=O)NCCOCCOCCOCCOCCOCCNC(=O)c1cc(NC(=O)c2nc(NC(=O)CCNC(=O)c3cc(NC(=O)c4nc(NC(=O)CCCNC(=O)c5cc(NC(=O)c6nc(NC(=O)CCNC(=O)c7cc(NC(=O)c8nccn8C)cn7C)cn6C)cn5C)cn4C)cn3C)cn2C)cn1C` [Compound 130], under 100 nM.
